What was measured:
human orexin 2 receptors = target: T1, human orexin 2 receptors (Homo sapiens, UniProt O43614); assay: Calcium accumulation in cells (FLIPR), hOx2R; type: cell-based; details: cells expressing human orexin 2 receptor; inhibition of orexin A-induced calcium accumulation; Cheng and Prusoff correction
T1 sequence (O43614 1-444): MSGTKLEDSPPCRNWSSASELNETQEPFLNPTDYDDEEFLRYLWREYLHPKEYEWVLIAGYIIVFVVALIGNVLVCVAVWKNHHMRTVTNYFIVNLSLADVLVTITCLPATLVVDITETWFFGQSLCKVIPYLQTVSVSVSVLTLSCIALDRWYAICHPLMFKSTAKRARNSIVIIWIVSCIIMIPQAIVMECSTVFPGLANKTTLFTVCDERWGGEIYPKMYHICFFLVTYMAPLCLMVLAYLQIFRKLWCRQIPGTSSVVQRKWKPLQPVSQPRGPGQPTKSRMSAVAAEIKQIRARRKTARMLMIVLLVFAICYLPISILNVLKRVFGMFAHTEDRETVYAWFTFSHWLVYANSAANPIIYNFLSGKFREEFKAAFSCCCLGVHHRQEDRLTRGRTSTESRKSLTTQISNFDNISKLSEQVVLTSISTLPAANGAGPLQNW

human orexin 1 receptors = target: T2, human orexin 1 receptors (Homo sapiens, UniProt O43613); assay: Calcium accumulation in cells (FLIPR), hOx1R; details: for inhibition at 10 µM: read-out: FLIPR hOx1R % inhibition value
T2 sequence (O43613 1-425): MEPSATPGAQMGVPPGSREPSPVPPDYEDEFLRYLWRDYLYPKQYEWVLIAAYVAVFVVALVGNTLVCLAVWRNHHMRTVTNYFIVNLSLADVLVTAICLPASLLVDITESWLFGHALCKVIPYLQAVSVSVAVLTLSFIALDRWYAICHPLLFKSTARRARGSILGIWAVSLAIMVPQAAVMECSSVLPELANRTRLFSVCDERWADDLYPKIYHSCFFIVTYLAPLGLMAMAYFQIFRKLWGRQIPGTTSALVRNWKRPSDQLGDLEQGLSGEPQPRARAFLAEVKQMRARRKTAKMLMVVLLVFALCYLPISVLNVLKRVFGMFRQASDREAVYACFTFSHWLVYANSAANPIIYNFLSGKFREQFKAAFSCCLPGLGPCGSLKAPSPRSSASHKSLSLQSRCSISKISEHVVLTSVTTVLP
Experimental: Cells expressing human orexin 1 or human orexin 2 receptors, were seeded at 8,000 cells/well in 384 well black-walled clear bottom, poly-D-lysine coated plates. After 24 h, the medium was removed and cells were washed once with phosphate buffered saline and serum-deprived overnight in assay buffer (130 mM NaCl, 5.4 mM KCl, 1.8 mM CaCl2, 0.8 mM MgSO4, 0.9 mM NaH2PO4, 25 mM glucose, 20 mM HEPES, pH 7.4) containing bovine serum albumin (1% w/v).
On the day of the experiment, the cells seeded in black plates were treated with assay buffer containing the Ca^2+sensitive fluorescent dye Fluo-4-AM (2 μM), and probenecid (0.1 mM). After 1 h plates were washed twice with, and resuspended in, assay buffer containing probenecid (0.1 mM) using a multi plate washer. The plates were placed into a FLIPR II (Fluorometric Imaging Plate Reader, Molecular Devices, Sunnyvale, Calif., USA) and baseline fluorescence (fluorescence light units, FLU) was measured (5 measurements, 2 S each; laser excitation 488 nm at 0.6-1 W, CCD camera exposure 0.4 s) before addition of buffer alone (basal) or containing test compounds (either compound of formula I alone, agonist alone or agonist in the presence of various concentrations of compounds of formula I). Fluorescence measurements were then continued every 1 S for 120 S followed by every 4 S for 240 S.
Compounds of formula I were tested usually in a concentration range from 10^−9 M to 10^−5 M. In the second round, performed one hour later (to allow for equilibration), Orexin A was tested either in the absence (calibration curves, Orexin A agonist controls) or in the presence of compounds of formula I to determine antagonism.
Inhibition data is expressed in Table 2 as Ki [μM], converted by the Cheng and Prusoff correction (Ki=IC50/1+(L/EC50)), where IC50 is the 50% inhibition value determined in concentration response inhibition curves, EC50 is the half maximal activation concentration determined for orexin A in concentration response curves and L is the concentration of orexin A used in inhibition experiments performed in with a submaximal concentration of orexin A in the presence of up to 8 increasing concentrations of compound of formula I. Inhibition data is also expressed in Table 2 as % inhibition value measured at a concentration of 10 μM of selected compounds of formula I.

| SMILES | Ki (human orexin 2 receptors) [nM] | inhibition at 10 µM (human orexin 1 receptors) [%] | Ki (human orexin 1 receptors) [nM] |
| --- | --- | --- | --- |
| N#Cc1ccc(N2CCC3(CCCN(Cc4c[nH]c5ccccc45)C3=O)CC2)nc1 [Example 69, 6-(2-((1H-indol-3-yl)methyl)-1-oxo-2,9-diazaspiro[5.5]undecan-9-yl)nicotinonitrile] | 320 | 31 |  |
| Cc1nnc(N2CCC3(CCCN(Cc4c[nH]c5ccccc45)C3=O)CC2)s1 [Example 85, 2-((1H-indol-3-yl)methyl)-9-(5-methyl-1,3,4-thiadiazol-2-yl)-2,9-diazaspiro[5.5]undecan-1-one] | 664 | 42 |  |
| Cc1ccnc(N2CCC3(CCCC(=O)N3Cc3cc(C#N)ccc3F)CC2)n1 [Example 101, 4-fluoro-3-((9-(4-methylpyrimidin-2-yl)-2-oxo-1,9-diazaspiro[5.5]undecan-1-yl)methyl)benzonitrile] |  | < 10 |  |
| N#Cc1cncc(N2CCC3(CCCN(Cc4c[nH]c5ccccc45)C3=O)CC2)n1 [Example 77, 6-(2-((1H-indol-3-yl)methyl)-1-oxo-2,9-diazaspiro[5.5]undecan-9-yl)pyrazine-2-carbonitrile] | 173 |  | 3630 |
| Cc1nccc(N2CCC3(CCCN(Cc4c[nH]c5ccccc45)C3=O)CC2)n1 [Example 70, 2-((1H-indol-3-yl)methyl)-9-(2-methylpyrimidin-4-yl)-2,9-diazaspiro[5.5]undecan-1-one] | 240 |  | 1810 |
| N#Cc1cc(C#N)nc(N2CCC3(CCCN(Cc4c[nH]c5ccccc45)C3=O)CC2)n1 [Example 76, 2-(2-((1H-indol-3-yl)methyl)-1-oxo-2,9-diazaspiro[5.5]undecan-9-yl)pyrimidine-4,6-dicarbonitrile] | 1130 | < 10 |  |
| Cc1ccnc(N2CCC3(CCCC(=O)N3Cc3ccccc3-c3nc(C)no3)CC2)n1 [Example 99, 1-(2-(3-methyl-1,2,4-oxadiazol-5-yl)benzyl)-9-(4-methylpyrimidin-2-yl)-1,9-diazaspiro[5.5]undecan-2-one] | 614 | 12 |  |
| Cc1cccc(N2CCC3(CCCN(Cc4c[nH]c5ccccc45)C3=O)CC2)c1 [Example 57, 2-((1H-indol-3-yl)methyl)-9-m-tolyl-2,9-diazaspiro[5.5]undecan-1-one] | 171 |  | 3750 |
| CCn1cc(CN2CCCC3(CCN(c4nc(C)cc(C)n4)CC3)C2=O)c2ccccc21 [Example 54, 9-(4,6-dimethylpyrimidin-2-yl)-2-((1-ethyl-1H-indol-3-yl)methyl)-2,9-diazaspiro[5.5]undecan-1-one] | 149 |  | 3150 |
| COCc1cccc(CN2CCCC3(CCN(c4nc(C)cc(OC)n4)CC3)C2=O)c1 [Example 127, 9-(4-methoxy-6-methylpyrimidin-2-yl)-2-(3-(methoxymethyl)benzyl)-2,9-diazaspiro[5.5]undecan-1-one] | 100 |  | 2110 |
| Cc1ccc(N2CCC3(CCCN(Cc4c[nH]c5ccccc45)C3=O)CC2)nc1 [Example 68, 2-((1H-indol-3-yl)methyl)-9-(5-methylpyridin-2-yl)-2,9-diazaspiro[5.5]undecan-1-one] | 798 | 14 |  |
| CCOc1ccnc(N2CCC3(CCCN(Cc4c[nH]c5ccccc45)C3=O)CC2)n1 [Example 52, 2-((1H-indol-3-yl)methyl)-9-(4-ethoxypyrimidin-2-yl)-2,9-diazaspiro[5.5]undecan-1-one] | 125 |  | 1060 |
| O=C1N(Cc2c[nH]c3ccccc23)CCCC12CCN(c1ccc(C(F)(F)F)cn1)CC2 [Example 89, 2-((1H-indol-3-yl)methyl)-9-(5-(trifluoromethyl)pyridin-2-yl)-2,9-diazaspiro[5.5]undecan-1-one] | 426 | 18 |  |
| Cc1ccc(N2CCC3(CCCN(Cc4c[nH]c5ccccc45)C3=O)CC2)nc1C [Example 64, 2-((1H-indol-3-yl)methyl)-9-(5,6-dimethylpyridin-2-yl)-2,9-diazaspiro[5.5]undecan-1-one] | 150 |  | 3370 |
| N#Cc1ccnc(N2CCC3(CCCN(Cc4ccccc4-n4nccn4)C3=O)CC2)c1 [Example 27, 2-(2-(2-(2H-1,2,3-triazol-2-yl)benzyl)-1-oxo-2,9-diazaspiro[5.5]undecan-9-yl)isonicotinonitrile] | 645 | < 10 |  |
| COc1cncc(N2CCC3(CCCN(Cc4cccc5c4OCCO5)C3=O)CC2)n1 [Example 56, 2-((2,3-dihydrobenzo[b][1,4]dioxin-5-yl)methyl)-9-(6-methoxypyrazin-2-yl)-2,9-diazaspiro[5.5]undecan-1-one] | 718 | 35 |  |

| SMILES | Ki (human orexin 2 receptors) [nM] | inhibition at 10 µM (human orexin 1 receptors) [%] | Ki (human orexin 1 receptors) [nM] |
| --- | --- | --- | --- |
| Cc1ccnc(N2CCC3(CCCC(=O)N3Cc3cccc(-n4nccn4)c3)CC2)n1 [Example 94, 1-(3-(2H-1,2,3-triazol-2-yl)benzyl)-9-(4-methylpyrimidin-2-yl)-1,9-diazaspiro[5.5]undecan-2-one] |  | 36 |  |
| O=C1N(Cc2c[nH]c3ccccc23)CCCC12CCN(c1ccnc(Cl)n1)CC2 [Example 48, 2-((1H-indol-3-yl)methyl)-9-(2-chloropyrimidin-4-yl)-2,9-diazaspiro[5.5]undecan-1-one] | 152 |  | 3150 |
| COc1nccc(N2CCC3(CCCN(Cc4c[nH]c5ccccc45)C3=O)CC2)n1 [Example 47, 2-((1H-indol-3-yl)methyl)-9-(2-methoxypyrimidin-4-yl)-2,9-diazaspiro[5.5]undecan-1-one] | 630 | 25 |  |
| COc1cncc(N2CCC3(CCCN(Cc4c[nH]c5ccccc45)C3=O)CC2)c1 [Example 62, 2-((1H-indol-3-yl)methyl)-9-(5-methoxypyridin-3-yl)-2,9-diazaspiro[5.5]undecan-1-one] | 117 | 31 |  |
| Cc1ccnc(N2CCC3(CCCC(=O)N3Cc3ccccc3-n3nccn3)CC2)n1 [Example 16, 1-(2-(2H-1,2,3-triazol-2-yl)benzyl)-9-(4-methylpyrimidin-2-yl)-1,9-diazaspiro[5.5]undecan-2-one] | 270 | 31 |  |
| CN(C)c1ccnc(N2CCC3(CCCN(Cc4c[nH]c5ccccc45)C3=O)CC2)n1 [Example 46, 2-((1H-indol-3-yl)methyl)-9-(4-(dimethylamino)pyrimidin-2-yl)-2,9-diazaspiro[5.5]undecan-1-one] | 143 | 25 |  |
| Cc1ccnc(N2CCC3(CCCC(=O)N3Cc3cccc(-c4nc(C)no4)c3)CC2)n1 [Example 97, 1-(3-(3-methyl-1,2,4-oxadiazol-5-yl)benzyl)-9-(4-methylpyrimidin-2-yl)-1,9-diazaspiro[5.5]undecan-2-one] |  | 15 |  |
| Cc1ccnc(N2CCC3(CCCC(=O)N3Cc3cccc(N4CCCC4)n3)CC2)n1 [Example 98, 9-(4-methylpyrimidin-2-yl)-1-((6-(pyrrolidin-1-yl)pyridin-2-yl)methyl)-1,9-diazaspiro[5.5]undecan-2-one] |  | < 10 |  |
| Cc1ccnc(N2CCC3(CCCC(=O)N3Cc3nnc(-c4ccccc4)o3)CC2)n1 [Example 95, 9-(4-methylpyrimidin-2-yl)-1-((5-phenyl-1,3,4-oxadiazol-2-yl)methyl)-1,9-diazaspiro[5.5]undecan-2-one] |  | 10 |  |
| N#Cc1cccc(N2CCC3(CCCN(Cc4ccccc4-n4nccn4)C3=O)CC2)n1 [Example 26, 6-(2-(2-(2H-1,2,3-triazol-2-yl)benzyl)-1-oxo-2,9-diazaspiro[5.5]undecan-9-yl)picolinonitrile] |  | < 10 |  |
| Cc1cc(N2CCC3(CCCN(Cc4c[nH]c5ccccc45)C3=O)CC2)ccn1 [Example 100, 2-((1H-indol-3-yl)methyl)-9-(2-methylpyridin-4-yl)-2,9-diazaspiro[5.5]undecan-1-one] |  | < 10 |  |
| COc1cc(N2CCC3(CCCN(Cc4c[nH]c5ccccc45)C3=O)CC2)ccn1 [Example 61, 2-((1H-indol-3-yl)methyl)-9-(2-methoxypyridin-4-yl)-2,9-diazaspiro[5.5]undecan-1-one] |  |  | 3840 |
| O=C1N(Cc2c[nH]c3ccccc23)CCCC12CCN(c1cccc(O)n1)CC2 [Example 84, 2-((1H-indol-3-yl)methyl)-9-(6-hydroxypyridin-2-yl)-2,9-diazaspiro[5.5]undecan-1-one] |  | 24 |  |
| Cc1nnc(N2CCC3(CCCN(Cc4c[nH]c5ccccc45)C3=O)CC2)o1 [Example 17, 2-((1H-indol-3-yl)methyl)-9-(5-methyl-1,3,4-oxadiazol-2-yl)-2,9-diazaspiro[5.5]undecan-1-one] |  | 12 |  |
| Cc1ccnc(N2CCC3(CCCC(=O)N3Cc3ccc(-c4ncccn4)cc3)CC2)n1 [Example 90, 9-(4-methylpyrimidin-2-yl)-1-(4-(pyrimidin-2-yl)benzyl)-1,9-diazaspiro[5.5]undecan-2-one] |  | < 10 |  |
